Test results taken from paper PMC9501280, “Anti-Inflammatory Activity of Soluble Epoxide Hydrolase Inhibitors Based on Selenoureas Bearing an Adamantane Moiety” (International Journal of Molecular Sciences, 2022).
Values after ≈ are worked out from the molar mass of the structure shown. Like-named read-outs stand apart in the source and are kept apart here.

Tests used:
human recombinant sEH = molecular target: T1, human recombinant sEH (Homo sapiens, UniProt P34913); experiment: Human sEH inhibition, kinetic fluorescent assay; assay type: biochemical; conditions: kinetic fluorescent assay; means of three separate experiments; read-out: Human sEH IC50
T1 sequence (P34913 1-555): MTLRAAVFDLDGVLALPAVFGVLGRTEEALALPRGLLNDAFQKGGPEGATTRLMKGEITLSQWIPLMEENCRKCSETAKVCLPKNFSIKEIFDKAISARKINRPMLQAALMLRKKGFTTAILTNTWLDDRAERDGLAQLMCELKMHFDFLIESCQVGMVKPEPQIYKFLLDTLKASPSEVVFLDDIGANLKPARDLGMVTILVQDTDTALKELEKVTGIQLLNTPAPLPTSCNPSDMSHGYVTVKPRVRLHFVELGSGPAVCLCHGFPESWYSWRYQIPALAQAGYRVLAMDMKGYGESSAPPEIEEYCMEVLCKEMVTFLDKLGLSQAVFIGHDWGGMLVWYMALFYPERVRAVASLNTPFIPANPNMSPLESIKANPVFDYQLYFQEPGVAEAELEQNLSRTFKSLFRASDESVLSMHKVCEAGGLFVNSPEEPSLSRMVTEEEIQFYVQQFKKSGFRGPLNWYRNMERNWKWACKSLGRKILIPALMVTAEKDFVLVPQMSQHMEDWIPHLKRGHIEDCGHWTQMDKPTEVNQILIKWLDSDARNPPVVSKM

[1] = tested on: LPS-stimulated C57bl/6j peritoneal macrophages; experiment: Suppression of NO synthesis in LPS-stimulated peritoneal macrophages (Griess); assay type: cell-based, mice; conditions: for IC50: Mus musculus, Peritoneal macrophage, read-out: NO Synthesis, IC50 ± SE
Description: For screening designed compounds according to their probable ability to limit inflammation, we used a test on the inhibition of LPS-induced activation of primary murine macrophages. The most prominent anti-inflammatory activity, defined as the suppression of nitric oxide synthesis by LPS-stimulated macrophages, was evident for compounds 4a and 5b. At the same time, for 4a, the cytotoxic concentration was 4.7–18.4 times higher than the effective anti-inflammatory concentration. […] According to the data obtained, there is no direct correlation between the efficiency of the inhibition of sEH and NO synthesis, which requires further studies of the anti-inflammatory activity of the investigated compounds.
(§1) Peritoneal macrophages (PM) were isolated from the peritoneal exudate of 30 male C57bl/6j mice. To accumulate PM, 1 mL of 3% peptone solution was injected intraperitoneally. After 3 days, the mice were euthanized by cervical dislocation. Cells of peritoneal exudate were obtained by aseptic washing of the abdominal cavity with 5 mL of sterile Hanks’s solution (+4–6 °C) without calcium and magnesium ions. The total number and viability of cells were assessed in a Goryaev counting chamber (Russia) with a 0.4% trypan blue staining (Sigma-Aldrich, St. Louis, MO, USA). The cell concentration was adjusted to 1.0 × 10^6 cells/mL in DMEM (Gibco) supplemented with 2 mM L-glutamine (Gibco), 10% heat-inactivated fetal bovine serum (BioClot, Passau, Germany), 100 U/mL penicillin and […] streptomycin (Gibco) and plated 200 μL/well in 96-well transparent plates (SPL Life Sciences Co., Ltd., Pochon, Korea). After 2 h at 37 °C in a humidified atmosphere with 5% CO2, wells were washed to remove nonadherent cells. After 24 h of incubation, 20 μL of the supernatants were substituted with 20 μL of solutions of the test compounds, followed with E. coli O127:B8 LPS (100 ng/mL final concentration) after 30 min. Experiments were run in 3 independent replicates.
The accumulation of nitrite anion (a stable decomposition product of NO produced by iNOS) in the supernatants was determined using a standard Griess reagent. Briefly, 50 μL of supernatants collected 22 h after incubation of PM with the test and control compounds were mixed with 50 μL of 1% sulfonamide in 2.5% H3PO4 and 50 μL of 0.1% N-(1-naphthyl) ethylenediamine in 2.5% H3PO4. After incubation at 23 °C for 10 min. in an orbital shaker, the optical density was determined at a wavelength of 550 nm with a microplate reader Infinite M200 PRO (Tecan, Austria).

[2] = MTT cytotoxicity on peritoneal macrophages; assay type: cell-based, mice; conditions: male, C57bl/6j, mouse, 24 h incubation, read-out: MTT CC50 ± SE
Method: as §1
(§2) The activity of lactate dehydrogenase (LDH) in a cell culture medium served as a marker of membrane permeability and cell death. Aliquots of supernatants were taken after 24 h of inoculation with test compounds, mixed with 250 μL of […] NADH solution in 54 mM phosphate-buffered saline (pH 7.5). Then, 25 μL of a 6.48 mM pyruvate solution was added to the mixture. The optical density was followed at a wavelength of 340 nm for 20 min. The MTT test was performed 24 h after the incubation of cells with the tested compounds. Briefly, 20 μL of MTT solution was added to each well and incubated at 37 °C in a humidified atmosphere containing 5% CO2 for 4 h. The culture medium was aspirated, the cells were lysed and formazan crystals dissolved in 150 μL of DMSO. The plates were shaken at room temperature for 10 min, and the optical density was measured in a microplate reader Infinite M200 PRO (Tecan Group Ltd., Männedorf, Switzerland) at a wavelength of 565 nm.

[3] = tested on: C57bl/6j peritoneal macrophages; experiment: MTT cytotoxicity on peritoneal macrophages; assay type: cell-based, mice; conditions: Mus musculus, Peritoneal macrophage, read-out: EC50 ± SEM, C57bl/6j
Method: as §1, §2

[4] = LDH release cytotoxicity on peritoneal macrophages; assay type: cell-based, mice; conditions: male, C57bl/6j, mouse, 24 h incubation, read-out: LDH CC50 ± SE
Method: as §1
as §2, with “Briefly, 20 μL of MTT solution was added to each well and incubated at 37 °C in a humidified atmosphere containing 5% CO2 for 4 h. The culture medium was aspirated, the cells were lysed and formazan crystals dissolved in 150 μL of DMSO.” left out

[5] = tested on: human fibroblast cells (MRC-5); experiment: MTT test with human fibroblast cells; assay type: cell-based; conditions: read-out: EC50 ± SEM, MRC-5
Method: The studied compounds were added in concentrations of 1, 3, 6, 12, 25, 50, and 100 μM.
Human fibroblast cells (MRC-5) were used in this study. The cells were cultured in the DMEM medium that contained 10% embryonic calf serum in a CO2 incubator at 37 °C. The tested compounds were dissolved in DMSO and added to the cellular culture at the required concentrations. Three wells were used for each concentration. The cells that were incubated without the compounds were used as a negative control, and doxorubicin was used as the positive one. Cells were placed on 96-well microliter plates and cultivated at 37 °C in 5% CO2/95% air for 72 h. The cell viability was assessed through an MTT (3-(4,5-dimethylthiazol-2-yl)-2,5-phenyl-2H-tetrazolium bromide) conversion assay. A total of 1% MTT was added to each well. Three hours later, isopropanol was added and mixed for 15 min. Optical density (OD) of the samples was measured on a ThermoFischer multi-well spectrophotometer at a wavelength of 450 nm. […] The experimental results are given as average values obtained from three independently conducted experiments.

E. coli PQ37 = experiment: SOS chromotest; assay type: cell-based; conditions: induction factor
Method: For the final safety check of selenoureas, the SOS chromotest was carried out. […] The results are presented as the mean value of induction factor I (c) ± SEM based on the results of three independent experiments, each of which included three replicates (Table 5).
The SOS chromotest was carried out according to the standard procedure, with recommended additions. The E. coli PQ37 strain was provided by P. Quillardet (Paris, France). The test compounds were dissolved in dimethyl sulfoxide (DMSO) (also used as a negative control) and added to the bacterial medium in the required concentrations; the concentration of the injected solutions was 1% by volume.

[6] = Solubility in sodium phosphate buffer; assay type: physicochemical; conditions: aqueous buffer, kinetic from dmso stock; sodium phosphate buffer (pH 7.4, 0.1 M) containing 1% DMSO
Method: To our knowledge, no systematic studies of selenoureas as sEH inhibitors have been performed previously. The potency of the compounds was determined against the human recombinant sEH and their solubility assessed in phosphate-buffered saline (Table 1).

Row | SMILES | IC50 (human recombinant sEH) [µM] | melting point [°C] | solubility [6] [µM] | also measured
1 | [Se]=C(NCc1ccccc1)NCC12CC3CC(CC(C3)C1)C2 [5b, 1-[(Adamantan-1-yl)methyl]-3-benzylselenourea] | 0.2 | 158 to 159 | – | cytotoxic concentration versus effective anti-inflammatory concentration ([1]; CC50 (MTT, LDH) over NO synthesis IC50, peritoneal macrophages): comparable; IC50 ([1]; 22 h): 27.8 ± 5.2 µM; CC50 at 24 h [2]: 17.7 ± 5.7 µM; EC50 [3]: 17.7 ± 5.66 µM; CC50 at 24 h [4]: 20.4 ± 5.3 µM; EC50 ([5]; MRC5, 72 h): 3.04 ± 0.66 µM; I(c) ± SE, 10 µM (E. coli PQ37; compound 10 µM): 1.12 ± 0.18; I(c) ± SE, 25 µM (E. coli PQ37; compound 25 µM): 0.95 ± 0.13; I(c) ± SE, 50 µM (E. coli PQ37; compound 50 µM): 0.99 ± 0.11; I(c) ± SE, 100 µM (E. coli PQ37; compound 100 µM): 0.97 ± 0.08
2 | CC(NC(=[Se])NCc1ccccc1)C12CC3CC(CC(C3)C1)C2 (centres unmarked) [5c, 1-[1-(Adamantan-1-yl)ethyl]-3-benzylselenourea] | 0.274 | 154 to 155 | 110 ± 20 (≈ 41.3 µg/mL) | –
3 | [Se]=C(NCCC12CC3CC(CC(C3)C1)C2)NCc1ccccc1 [5d, 1-[2-(Adamantan-1-yl)ethyl]-3-benzylselenourea] | 0.0343 | 142 to 143 | 140 ± 20 (≈ 52.6 µg/mL) | –
4 | [Se]=C(NCc1ccccc1)Nc1ccc(C23CC4CC(CC(C4)C2)C3)cc1 [5e, 1-[4-(Adamantan-1-yl)phenyl]-3-benzylselenourea] | 0.204 | 147 to 148 | 200 ± 20 (≈ 84.7 µg/mL) | –
5 | CC12CC3CC(C)(C1)CC(NC(=[Se])NCc1ccccc1)(C3)C2 [5f, 1-(3,5-Dimethyladamantan-1-yl)-3-benzylselenourea] | 0.0485 | 112 to 113 | – | –
6 | [Se]=C(NCc1ccccc1)NC1C2CC3CC(C2)CC1C3 (centres unmarked) [5g, 1-(Adamantan-2-yl)-3-benzylselenourea] | 0.12 | 139 to 140 | 110 ± 10 (≈ 38.2 µg/mL) | –
7 | C[C@@H]1C[C@H]2[C@@H]3CCC4=CC(=O)C=C[C@]4(C)[C@@]3(F)[C@@H](O)C[C@]2(C)[C@@]1(O)C(=O)CO [Dexamethasone, reference compound] | – | – | – | IC50 ([1]; LPS 100 ng/mL, supernatants after 22 h): 0.003 ± 0.001 µM; CC50 at 24 h ([2]; primary peritoneal macrophages): > 100 µM; EC50 ([3]; MTT, peritoneal macrophages of C57bl/6j mice): > 100 µM; CC50 at 24 h ([4]; primary peritoneal macrophages): > 100 µM
8 | CC(=O)N1CCC(NC(=O)NC23CC4CC(CC(C4)C2)C3)CC1 [compound 1153, reference compound] | – | – | 970 ± 60 (≈ 310 µg/mL) | –
9 | COc1cccc2c1C(=O)c1c(O)c3c(c(O)c1C2=O)C[C@@](O)(C(=O)CO)C[C@@H]3O[C@H]1C[C@H](N)[C@H](O)[C@H](C)O1 [doxorubicin, reference compound] | – | – | – | EC50 ([5]; MRC5, MTT, 72 h): 2.41 ± 0.15 µM
